The nature of series [1]: Histological analysis of liver of tumor-bearing mice. Conditions: rolipram-treated tumor-bearing mice; dilation observed in untreated tumor-bearing mice. Type of series: in vivo, BALB/c mice. The protocol:
(§1) Solid tumors were developed in BALB/c mice (n = 3) except the control group (group I) by injecting 1 × 10^4 viable 4T1 (RRID: CVCL_0125) mice breast carcinoma cells (resuspended in 50 μl of PBS) into the inguinal fourth mammary fat pad, and the tumor was allowed to develop for 14 days ([37], [38]). Mice were randomly divided into three groups, viz., untreated tumor (group II), mice treated intraperitoneally with 1 mg//kg bodyweight of rolipram (group III), and mice receiving 5 mg/kg bodyweight of rolipram, intraperitoneally (group IV) ([39], [40]). After 14 days, the mice were sacrificed. Lung, kidney, liver, serum, and the tumors were collected for further experiments ([15]).
Tissue samples of mammary tissue, lung, kidney, and liver from each group of mice were fixed in Bouin’s solution (Sigma–Aldrich; catalog no.: HT10132), dehydrated in graded alcohol, and embedded in paraffin wax. Thin sections (5 μm) of tissues were mounted on glass slides and stained with hematoxylin (Sigma–Aldrich; catalog no.: H3136), following rehydration with graded alcohol. The samples were again dehydrated with graded alcohol and stained with eosin and mounted with Dystyrene Plasticizer Xylene ([42]). […] For quantifying the number of cells in a unit area of histological section of lung, each section image was divided into 12 equal parts (dimensions: 480 px × 400 px). […]

Series [2] has as its system intracellular cAMP in MDA-MB-231 cells. The series is described as follows: cAMP assay (ELISA-based kit), intracellular cAMP. Type of series: cell-based, human. The following applies: 24 h, untreated 12.55 pmol/ml. The protocol:
(§2) To determine the intracellular level of cAMP, a […] ELISA-based cAMP assay kit was used, which relies on preparation of a standard curve for cAMP (pmol/ml) and denoting all the experimental values from the standard curve, and finally expressing as mean values with standard errors of triplicate samples per treatment group. The assay kit was obtained from Cayman Chemicals (item no.: 581001), and the assay was performed following the manufacturer’s protocol after washing the cells with 1X PBS (composition: 137 mM NaCl, 2.7 mM KCl, 10 mM Na2HPO4, and 1.8 mM KH2PO4) and treating with 0.1 M HCl for 20 min and sonicating the cells for lysis. In brief, the cell lysate was added to the 96-well plate precoated with mouse monoclonal anti-rabbit IgG and which also contained cAMP–acetylcholinesterase (cAMP tracer) that competes with the free cAMP in the cell lysate to bind to the cAMP-specific rabbit antibody. Following several washes, the absorbance of the color generated because of addition of acetylcholinesterase substrate is measured at 412 nm by Bio-Rad iMark Microplate Reader (RRID: SCR_023799), which is inversely proportional to the amount of free cAMP present in the cell lysate ([29]).
A general note: Cyclic AMP is a second messenger, typically raised through Gs and lowered through Gi signalling.

The subject of series [3] is intracellular cAMP in MCF-7 cells. Kind of series: cAMP assay (ELISA-based kit), intracellular cAMP. The following applies: 24 h, untreated control 14.1 pmol/ml. In kind it is cell-based, human. The protocol: as §2
A short description of series [4]: Serum biochemical parameters (kidney and liver function) of tumor-induced mice. Type of series: in vivo, BALB/c mice. The following applies: mean ± SD (n = 3); for Kidney function Creatinine: Tumor 0.93 ± 0.15, Normal 0.32 ± 0.06; for Liver function Albumin: Tumor 3.56 ± 0.25, Normal 2.36 ± 0.15; for Liver function Protein: Tumor 4.93 ± 0.15, Normal 5.16 ± 0.20; for Kidney function Urea: Tumor 36.89 ± 3.43, Normal 17.30 ± 2.25. The protocol:
as §1
The total protein in mouse serum was measured by biuret method, which relies on formation of reddish-violet color in alkaline copper solution ([46]). The absorptivity of the colored solution was measured at 570 nm and compared with known protein standards to determine the level of total protein in the serum. The serum urea level of mouse was determined using urea kit (Coral Clinical Systems; catalog no.: 1102240075), which relies on the reaction of phenolic chromogen and hypochlorite with the ammonia formed from urea ([47]). The absorbance of the test sample (AbsT) and standard sample (AbsS) was recorded at 570 nm, and the concentration of urea was determined by the formula urea (mg/dl) = (AbsT/AbsS) × 40, according to the manufacturer’s protocol. Level of serum creatinine was measured using creatinine kit (Coral Clinical Systems; catalog no.: 1101060035). Briefly, this kit utilizes the formation of a colored complex because of reaction between alkaline picric acid solution and creatinine ([48]). The initial absorbance of the test sample (Abs1T) and standard sample (Abs1S) was measured at 520 nm after 30 s of incubation, and the final absorbance of the test sample (Abs2T) and standard sample (Abs2S) was measured exactly after 60 s. The formula, creatinine (mg/dl) = (Abs2T – Abs1T)/(Abs2S – Abs1S) × 2, was used to determine the concentration of creatinine. Activities of AST and ALT were evaluated from the serum of mice using AST assay kit (catalog no.: MAK055) and ALT assay kit (catalog no.: MAK052) from Sigma–Aldrich, following the manufacturer’s protocol. The estimation of AST activity is based on the production of glutamate by the activity of AST present in the serum samples. The absorbance of the colored product was measured at 450 nm and compared with known standard samples to determine the activity ([49]). Similarly, the ALT assay kit is based on the production of pyruvate in the presence of ALT in serum. The activity of the ALT in mouse serum was determined by measuring the absorbance of the colored product at 570 nm and comparing with the known standard samples ([50]). All the spectrophotometric analyses were carried out in Bio-Rad iMark Microplate Reader (RRID: SCR_023799).

The values below come from paper PMC11879692, “PDE4 inhibitor rolipram represses hedgehog signaling via ubiquitin-mediated proteolysis of GLI transcription factors to regress breast cancer” (The Journal of Biological Chemistry, 2025).

`COc1ccc(C2CNC(=O)C2)cc1OC1CCCC1` (stereo not drawn) [rolipram, Rolipram]: the hepatic vein dilation entry in series [1] is given as “not evident”. Besides, the “intracellular cAMP level” value amounted to 37.41 pmol/mL in series [2] (MDA-MB-231, IC50 dose); 28.35 pmol/mL in series [2] (MDA-MB-231, half IC50 dose); 43.12 pmol/mL in series [3] (MCF-7, IC50 dose); 24.02 pmol/mL in series [3] (MCF-7, half IC50 dose). Also, the results for the “Kidney function Creatinine” value in series [4] (Tumor + 1 mg/kg) and in series [4] (Tumor + 5 mg/kg) were 0.45 ± 0.08 mg/dL and 0.50 ± 0.05 mg/dL, respectively. The “Liver function Albumin” value in series [4] (Tumor + 1 mg/kg) was found to be 2.73 ± 0.15 g/dL; in series [4] (Tumor + 5 mg/kg), 2.66 ± 0.05 g/dL. The figures for the “Liver function Protein” value in series [4] (Tumor + 1 mg/kg) and in series [4] (Tumor + 5 mg/kg) were 5.30 ± 0.10 g/dL and 4.90 ± 0.20 g/dL, respectively. Further, the results for the “Kidney function Urea” value in series [4] (Tumor + 1 mg/kg) and in series [4] (Tumor + 5 mg/kg) were 20.39 ± 3.06 mg/dL and 22.08 ± 2.34 mg/dL, respectively. In series [4] (Tumor + 1 mg/kg, Tumor 135.85 ± 11.7, Normal 85.23 ± 7.97), the “Liver function AST” value worked out at 119.69 ± 10.1 U/L. Also, the “Liver function ALT” value in series [4] (Tumor + 5 mg/kg, Tumor 55.77 ± 2.38, Normal 43.31 ± 0.88) is on record as 55.69 ± 4.97 U/L.
